Like-named read-outs stand apart in the source and are kept apart here.
How the values were obtained:
[1] = Cytotoxicity in TZM-bl cells (XTT); format: cell-based; settings: human; TZM-bl cells, XTT, 3 days; read-out: TZM-bl cells CC50 (μM ± SD)
Description: (§1) The cytotoxicity of small molecules in TZM-bl cells was measured by a colorimetric method using XTT (sodium 3′-(1-(phenylamino)-carbonyl)-3,4-tetrazolium-bis(4-methoxy-6-nitro)benzenesulfonic acid hydrate), a light yellowish tetrazolium dye. Briefly, 100 μl of a compound at graded concentrations was added to equal volume of cells (10^5/ml) in wells of 96-well plates followed by incubation at 37° C. for 3 days and addition of XTT (PolySciences, Inc., Warrington, Pa.).

[2] = Cytotoxicity in MT-2 cells (XTT); format: cell-based; settings: human; MT-2 cells, XTT, four days
Description: (§2) Cytotoxicity of small molecules in MT-2 cells and PBMC was measured by the XTT ((sodium 3′-(1-(phenylamino)-carbonyl)-3,4-tetrazolium-bis(4-methoxy-6-nitro)benzene-sulfonic acid hydrate)) method. Briefly, for MT-2 cells, 100 μl of a small molecule at graded concentrations was added to an equal volume of cells (10^5 cells/ml) in 96-well plates followed by incubation at 37° C. for four days, which ran parallel with the neutralization assay in MT-2 (except medium was added instead of virus). In the case of PBMC, 5×10^5 cells/ml was used and the cytotoxicity was measured after seven days. […] The percentage cytotoxicity and the CC50 values were calculated as described above.

[3] = tested on: laboratory-adapted HIV-1 IIIB strain; experiment: microbe, parasite or virus in culture; settings: Human immunodeficiency virus 1, IIIB, MT2, read-out: MT-2 Cells IC50 (μM ± SD)
[4] = tested on: MT-2 cells; experiment: Cytotoxicity in MT-2 cells (XTT); format: cell-based
Description: as §2

[5] = tested on: TZM-bl cells; experiment: Cytotoxicity in TZM-bl cells (XTT); format: cell-based; settings: for % toxicity at that dose (number in parenthesis), TZM-bl cells: at the dose given as CC50 bound
Description: as §1

[6] = tested on: laboratory-adapted HIV-1 IIIB strain; settings: read-out: MT-2 Cells IC50 (μM ± SD); multi-cycle assay, MT-2 cells, HIV-1 IIIB
[7] = MT-2 cells, XTT, four days, read-out: MT-2 Cells CC50
[8] = TZM-bl cells, XTT, 3 days, read-out: TZM-bl cells CC50 (μM ± SD)

Compound	IC50 [3]	CC50 [4, 7]	% toxicity at that dose (number in parenthesis), TZM-bl cells [5]	IC50 [6]	further results
O=C(CCC(=O)Nc1ccc(Cl)cc1)NCCCN1CCC(O)CC1 [Compound 44, N^1-(4-chlorophenyl)-N^4-(3-(4-hydroxypiperidin-1-yl)propyl)succinamide]	> 109 µM				CC50 at 3 days [1]: ~109 µM; CC50 at 4 days [2]: > 109 µM; melting point: 154 to 155 °C
Cc1nc2ncccn2c1CN1CCC(NC(=O)CCC(=O)Nc2ccc(Cl)cc2)CC1 [Compound 50, N^1-(4-chlorophenyl)-N^4-(1-((2-methylimidazo[1,2-a]pyrimidin-3-yl)methyl)piperidin-4-yl)succinamide]	> 33 µM				CC50 at 3 days [1]: > 88 µM; CC50 at 4 days [2]: > 88 µM
CCn1cc(NC(=O)C(=O)Nc2ccc(Cl)cc2)cn1 [Compound 17, N^1-(4-chlorophenyl)-N^2-(1-ethyl-1H-pyrazol-4-yl)oxalamide]		10.7 ± 1.6 µM			melting point: 232 to 233 °C
C[C@@H](NC(=O)C(=O)Nc1ccc(Cl)cc1)[C@H](c1ccccc1)N1CCOCC1 [Compound 19, N^1-(4-chlorophenyl)-N^2-((1S,2R)-1-morpholino-1-phenylpropan-2-yl)oxalamide]	> 24.9 µM				
CC(=O)N1CCCCC1C(NC(=O)C(=O)Nc1ccc(Cl)cc1)c1nc(C)c(CCO)s1 (stereo not drawn) [Compound 13, N^1-((1-acetylpiperidin-2-yl)(5-(2-hydroxyethyl)-4-methylthiazol-2-yl)methyl)-N^2-(4-chlorophenyl)oxalamide]	> 52 µM		20%		
CCC(CN1CCOCC1)NC(=O)CCC(=O)Nc1ccc(Cl)cc1 (stereo not drawn) [Compound 46, N^1-(4-chlorophenyl)-N^4-(1-morpholinobutan-2-yl)succinamide]	33.2 ± 2.2 µM				CC50 at 3 days [1]: > 109 µM; CC50 at 4 days [2]: 41.9 ± 1.6 µM
Cc1nc(C(NC(=O)C(=O)Nc2ccc(C(F)(F)F)cc2)C2CCCCN2)sc1CO.Cl.Cl (stereo not drawn) [Compound 20, N^1-((5-(hydroxymethyl)-4-methylthiazol-2-yl)(piperidin-2-yl)methyl)-N^2-(4-(trifluoromethyl)phenyl)oxalamide.2HCl]		> 75.5 µM	10%	4.6 ± 0.3 µM	CC50 [5, 8]: > 75.5 µM
Cc1nc(C(NC(=O)C(=O)Nc2ccc(Cl)cc2)C2CCCN2)sc1CO (stereo not drawn) [Compound 14, N^1-(4-chlorophenyl)-N^2-((5-(hydroxymethyl)-4-methylthiazol-2-yl)(pyrrolidin-2-yl)methyl)oxalamide.HCOOH]				15.4 ± 2.6 µM	CC50 [5]: 12.4 ± 0.7 µM; CC50 [4]: ~45 µM
CC(=O)c1ccc(NC(=O)C(=O)NC(c2nc(C)c(CCO)s2)C2CCCCN2)cc1 (stereo not drawn) [Compound 34, N^1-(4-acetylphenyl)-N^2-((5-(2-hydroxyethyl)-4-methylthiazol-2-yl)(piperidin-2-yl)methyl)oxalamide.2HCl]				24.5 ± 1.5 µM	CC50 [5]: > 77.3 µM; CC50 [4]: > 48.3 µM
Cc1nc(C(NC(=O)C(=O)Nc2ccc(C(F)(F)F)cc2)C2CCCCN2)sc1CCO.Cl.Cl (stereo not drawn) [Compound 31, N^1-((5-(2-hydroxyethyl)-4-methylthiazol-2-yl)(piperidin-2-yl)methyl)-N^2-(4-(trifluoromethyl)phenyl)oxalamide.2HCl]		> 39 µM	35%	17.4 ± 5.7 µM	CC50 [5, 8]: > 74 µM
Cc1nc(C(NC(=O)C(=O)Nc2ccc(F)c(F)c2)C2CCCCN2)sc1CO.Cl (stereo not drawn) [Compound 22, N^1-(3,4-difluorophenyl)-N^2-((5-(hydroxymethyl)-4-methylthiazol-2-yl)(piperidin-2-yl)methyl)oxalamide.HCl]		> 87 µM	0%	14 ± 3.8 µM	CC50 [5, 8]: > 87 µM
CN1CCN(C(=O)CNC(=O)CCC(=O)Nc2ccc(Cl)cc2)CC1 [Compound 47, N^1-(4-chlorophenyl)-N^4-(2-(4-methylpiperazin-1-yl)-2-oxoethyl)succinamide .HCOOH]				~48 µM	CC50 [5]: ~36 µM; CC50 [4]: ~97 µM
